Results as given in patent US20090181889A1, “COMPOSITIONS AND METHODS FOR DETECTION AND TREATMENT OF HUMAN HERPESVIRUS (HHV)-6” (priority 2006, published 2009).

Tests used:
[1] = tested on: wild-type 293 cells (HEK 293 cell membranes); assay: [35S]GTPγS binding to native (wild-type) HEK293 cell membranes; type: biochemical, human; settings: binding without compound = 100%, three experiments
HHV-6B U51 [2] = target: T1, HHV-6B U51 (Human herpesvirus 6B, UniProt P52542); type: biochemical; settings: HHV-6B U51 HEK293 membranes; for % Control [35S]GTPγS binding ± SEM, U51 (+Tet): induced with 1 μg/ml tetracycline 24 h; for % Control [35S]GTPγS binding ± SEM, U51 (Unind): no tetracycline (uninduced)
[3] = tested on: human μ, δ, or κ opioid receptor; assay: [35S]GTPγS binding to control CHO cell membranes with opioid receptors; type: biochemical; settings: CHO cells stably transfected with human μ, Emax obtained at opioid concentration less than 1 μM
[4] = tested on: herpesviruses serine proteases; settings: cited from earlier work
HHV-6B U51 [5] = target: T1, HHV-6B U51; type: binding
U51 = target: T2, U51 (Human herpesvirus 6A, UniProt P52382); settings: Fitzsimons C P, et al. 2005; cited from earlier work
T2 sequence (P52382 1-301): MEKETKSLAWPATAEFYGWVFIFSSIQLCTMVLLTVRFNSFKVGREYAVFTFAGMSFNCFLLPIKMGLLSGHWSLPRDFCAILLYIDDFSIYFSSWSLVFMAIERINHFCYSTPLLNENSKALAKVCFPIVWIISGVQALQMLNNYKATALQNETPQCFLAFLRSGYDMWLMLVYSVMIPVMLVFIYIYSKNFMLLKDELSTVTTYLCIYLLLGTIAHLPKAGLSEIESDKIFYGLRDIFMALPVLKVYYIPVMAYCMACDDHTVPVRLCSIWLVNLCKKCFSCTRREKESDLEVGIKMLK

HHV-6B U51 [6] = target: T3, HHV-6B U51 (Human herpesvirus 6B, UniProt P52542); type: biochemical; settings: HHV-6B U51 HEK293 membranes; for % Control [35S]GTPγS binding ± SEM, U51 (+Tet): induced with 1 μg/ml tetracycline 24 h; for % Control [35S]GTPγS binding ± SEM, U51 (Unind): no tetracycline (uninduced); remark: listed apart in the source
T3 sequence (P52542 whole entry, looked up): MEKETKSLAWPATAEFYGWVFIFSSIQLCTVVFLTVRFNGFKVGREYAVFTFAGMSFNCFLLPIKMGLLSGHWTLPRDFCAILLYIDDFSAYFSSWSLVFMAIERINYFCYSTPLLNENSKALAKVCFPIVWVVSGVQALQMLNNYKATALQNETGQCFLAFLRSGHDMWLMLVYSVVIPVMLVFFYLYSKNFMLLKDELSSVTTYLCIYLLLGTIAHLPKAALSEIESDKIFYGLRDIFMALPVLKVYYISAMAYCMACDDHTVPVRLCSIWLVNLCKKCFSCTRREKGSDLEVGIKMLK

HHV-6 U51 = target: T4, HHV-6 U51 (Human herpesvirus 6A, UniProt P52382); settings: Beisser, et al. 1998; cited from earlier work
T4 sequence (P52382 1-301): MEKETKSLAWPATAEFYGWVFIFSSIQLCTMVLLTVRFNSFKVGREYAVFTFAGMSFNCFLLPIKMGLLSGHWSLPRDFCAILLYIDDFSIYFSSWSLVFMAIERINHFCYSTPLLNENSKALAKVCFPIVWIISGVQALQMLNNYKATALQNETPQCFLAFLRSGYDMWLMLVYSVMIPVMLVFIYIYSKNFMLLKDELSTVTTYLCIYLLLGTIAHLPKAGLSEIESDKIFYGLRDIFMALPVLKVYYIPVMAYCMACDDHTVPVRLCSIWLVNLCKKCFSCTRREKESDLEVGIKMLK

HEK293 cells = type: cell-based, human

Molecule: C[C@@H](NC(=O)[C@@H](N)Cc1ccc(O)cc1)C(=O)NCC(=O)N(C)[C@@H](Cc1ccccc1)C(=O)NCCO [DAMGO]
- % Control [35S]GTPγS binding ± SEM, Native [1]: 106 ± 4%
- % Control [35S]GTPγS binding ± SEM, U51 (+Tet) (HHV-6B U51 [2]): 86 ± 6%
- % Control [35S]GTPγS binding ± SEM, U51 (Unind) (HHV-6B U51 [2]): 96 ± 3%
- Control Cell Emax, % Control [35S]GTPγS binding ± SEM [3]: 216 ± 4.4%

Molecule: CC(C)[C@H](NC(=O)[C@H](CCC(=O)O)NC(=O)[C@H](Cc1ccccc1)NC(=O)[C@@H](C)NC(=O)[C@@H](N)Cc1ccc(O)cc1)C(=O)N[C@H](C(=O)NCC(N)=O)C(C)C [Deltorphin II]
- % Control [35S]GTPγS binding ± SEM, U51 (+Tet) (HHV-6B U51 [2]): 91 ± 6%
- % Control [35S]GTPγS binding ± SEM, U51 (Unind) (HHV-6B U51 [2]): 98 ± 2%

Molecule: CN1CC[C@]23c4c5ccc(O)c4O[C@H]2[C@@H](O)C=C[C@H]3[C@H]1C5 [Morphine, morphine]
- % Control [35S]GTPγS binding ± SEM, Native [1]: 99 ± 9%
- % Control [35S]GTPγS binding ± SEM, U51 (+Tet) (HHV-6B U51 [2]): 91 ± 9%
- % Control [35S]GTPγS binding ± SEM, U51 (Unind) (HHV-6B U51 [2]): 99 ± 0.9%

Molecule: Oc1ccc2c3c1O[C@H]1c4[nH]c5ccccc5c4C[C@@]4(O)[C@@H](C2)N(CC2CC2)CC[C@]314 [Naltrindole, naltrindole]
- % Control [35S]GTPγS binding ± SEM, Native [1]: 96 ± 4%
- % Control [35S]GTPγS binding ± SEM, U51 (+Tet) (HHV-6B U51 [2]): 97 ± 4%
- % Control [35S]GTPγS binding ± SEM, U51 (Unind) (HHV-6B U51 [2]): 98 ± 4%

Molecule: O=S(=O)(F)Cc1ccccc1 [PMSF, phenylmethylsulphonyi fluoride]
- inhibition of herpesvirus serine proteases [4]: weakly inhibited

Molecule: C[C@@H](NC(=O)[C@@H](N)Cc1ccc(O)cc1)C(=O)NCC(=O)N(C)[C@@H](Cc1ccccc1)C(=O)NCCO [[^3H]DAMGO]
- specific binding of radiolabelled opioid to HHV-6B U51 membranes (HHV-6B U51 [5]): did not specifically bind

Molecule: CCC12CCN(CC3(O)CC3)C(Cc3ccc(O)cc31)C2(C)C (centres unmarked) [[^3H]bremazocine]
- specific binding of radiolabelled opioid to HHV-6B U51 membranes (HHV-6B U51 [5]): did not specifically bind

Molecule: Oc1ccc2c3c1O[C@H]1c4[nH]c5ccccc5c4C[C@@]4(O)[C@@H](C2)N(CC2CC2)CC[C@]314 [[^3H]naltrindole]
- specific binding of radiolabelled opioid to HHV-6B U51 membranes (HHV-6B U51 [5]): did not specifically bind

Molecule: CCL2: chemokine
- action at U51 (U51): agonists

Molecule: CCL11: chemokine
- action at U51 (U51): agonists

Molecule: DPDPE
- % Control [35S]GTPγS binding ± SEM, Native [1]: 104 ± 1%
- % Control [35S]GTPγS binding ± SEM, U51 (+Tet) (HHV-6B U51 [2]): 99 ± 2%
- % Control [35S]GTPγS binding ± SEM, U51 (Unind) (HHV-6B U51 [2]): 96 ± 1%
- Control Cell Emax, % Control [35S]GTPγS binding ± SEM [3]: 254 ± 16%

Molecule: Interleukin-8: chemokine ligand
- % Control [35S]GTPγS binding ± SEM, Native [1]: 101 ± 5%
- % Control [35S]GTPγS binding ± SEM, U51 (+Tet) (HHV-6B U51 [6]): 96 ± 3%
- % Control [35S]GTPγS binding ± SEM, U51 (Unind) (HHV-6B U51 [6]): 96 ± 2%

Molecule: MCP-3: chemokine ligand
- % Control [35S]GTPγS binding ± SEM, Native [1]: 97 ± 3%
- % Control [35S]GTPγS binding ± SEM, U51 (+Tet) (HHV-6B U51 [6]): 103 ± 2%
- % Control [35S]GTPγS binding ± SEM, U51 (Unind) (HHV-6B U51 [6]): 109 ± 9%

Molecule: RANTES: β-chemokine (CC-chemokine)
- % Control [35S]GTPγS binding ± SEM, Native [1]: 101 ± 2%
- % Control [35S]GTPγS binding ± SEM, U51 (+Tet) (HHV-6B U51 [6]): 104 ± 2%
- % Control [35S]GTPγS binding ± SEM, U51 (Unind) (HHV-6B U51 [6]): 111 ± 1%
- binding affinity to HHV-6 U51 (HHV-6 U51): nanomolar affinity
- action at U51 (U51): agonists

Molecule: US28: human cytomegalovirus 7-transmembrane protein, expressed from plasmid as positive control
- cell fusion activity compared to cells transfected with VSV-G alone (HEK293 cells): ~3 fold

Molecule: kappa opioid receptor: rat kappa opioid receptor expression plasmid, negative control
- cell fusion activity compared to cells transfected with VSV-G alone (HEK293 cells): no effect

B1: Lymphotactin: chemokine ligand (protein)
chain: VGSEVSDKRTCVSLTTQRLPVSRIKTYTITEGSLRAVIFITKRGLKVCADPQATWVRDVVRSMDRKSNTRNNMIQTKPTGTQQSTNTAVTLTG
- % Control [35S]GTPγS binding ± SEM, Native [1]: 97 ± 2%
- % Control [35S]GTPγS binding ± SEM, U51 (+Tet) (HHV-6B U51 [6]): 104 ± 7%
- % Control [35S]GTPγS binding ± SEM, U51 (Unind) (HHV-6B U51 [6]): 99 ± 3%
